Results from patent US8420682B2, “N-phenylacetamide derivatives, which inhibit the enzyme SOAT-1, and pharmaceutical and cosmetic compositions containing them” (Galderma Research & Development, priority 2009, dated 2013).

target: T1, enzyme ACAT-1 (Homo sapiens, UniProt P35610); assay: HepG2 NBD-cholesterol fluorescence test for inhibitory activity towards the enzyme ACAT-1 (SOAT-1); type: cell-based; settings: HepG2 cells, NBD-cholesterol 1 μg/ml, incubation 6 hours at 37° C., fluorescence read (excitation 490 nm, emission 540 nm)
T1 construct: endogenous in cells; host or cells: HepG2
T1 sequence (P35610 1-550): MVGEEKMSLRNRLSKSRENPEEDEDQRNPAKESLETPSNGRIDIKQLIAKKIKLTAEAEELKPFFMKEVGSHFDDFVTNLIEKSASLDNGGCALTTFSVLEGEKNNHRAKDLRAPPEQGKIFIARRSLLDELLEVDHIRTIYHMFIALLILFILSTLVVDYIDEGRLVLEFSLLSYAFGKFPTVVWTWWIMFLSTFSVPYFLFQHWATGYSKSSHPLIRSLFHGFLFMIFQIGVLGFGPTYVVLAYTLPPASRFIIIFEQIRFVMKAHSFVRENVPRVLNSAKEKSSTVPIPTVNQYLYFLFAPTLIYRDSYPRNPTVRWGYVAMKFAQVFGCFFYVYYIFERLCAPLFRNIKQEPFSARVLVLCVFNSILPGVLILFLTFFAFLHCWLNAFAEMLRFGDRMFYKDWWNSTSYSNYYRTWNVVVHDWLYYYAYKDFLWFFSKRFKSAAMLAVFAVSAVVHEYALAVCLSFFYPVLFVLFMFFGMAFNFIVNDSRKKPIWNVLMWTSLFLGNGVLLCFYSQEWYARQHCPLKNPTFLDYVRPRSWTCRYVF
Procedure: The compounds (I) according to the invention, and also the pharmaceutically acceptable salts, solvates and/or hydrates thereof, have inhibitory properties on the enzyme SOAT-1. This inhibitory activity on the enzyme SOAT-1 is measured according to a HepG2 primary […] test, as described in Example 7.
The compounds of formula (I) according to the invention were subjected to a test for evaluating their inhibitory activity towards the enzyme ACAT-1, inspired by the following publication: “Identification of ACAT1- and ACAT2-specific inhibitors using a novel, cell based fluorescence assay: individual ACAT uniqueness”, J. Lipid. Res. (2004) vol. 45, pages 378-386.
The principle of this test is based on the use of NBD-cholesterol, a cholesterol analogue whose fluorescence depends on its environment. When this molecule is in a polar environment, it is weakly fluorescent, whereas in a non-polar environment it is strongly fluorescent. Free NBD-cholesterol becomes inserted in cell membranes and is weakly fluorescent in this polar environment. When NBD-cholesterol is esterified with ACAT, the NBD-cholesterol ester enters non-polar lipid droplets and is then strongly fluorescent.
The method below is applied: HepG2 cells are incubated in the presence of NBD-cholesterol (1 μg/ml) and of the test compound of formula (I) in black transparent-bottomed 96-well plates, at a rate of 30 000 cells per well. After incubation for 6 hours at 37° C. under 5% CO2, the medium is removed by turning upside-down and the cells are washed with twice 100 μl of PBS. After addition of 50 μl of lysis buffer (10 mM NaPO4, 1% Igepal), the plates are shaken for 5 minutes and the fluorescence is read (excitation at 490 nm, emission at 540 nm) on a Fusion machine (Perkin-Elmer).

SMILES | IC50 [nM]
Cc1ccc(N2C(=O)N(CC(=O)Nc3c(C(C)C)cccc3C(C)C)C(=O)C23CCCCC3)cc1C#N [Compound 3, 2-[1-(3-cyano-4-methylphenyl)-2,4-dioxo-1,3-diaza-spiro[4.5]dec-3-yl]-N-(2,6-diisopropylphenyl)acetamide] | 2.5
CSc1ccc(N2C(=O)N(CC(=O)Nc3c(C(C)C)cccc3C(C)C)C(=O)C23CCCCC3)cc1 [Compound 4, N-(2,6-diisopropylphenyl)-2-[1-(4-methylsulfanyl-phenyl)-2,4-dioxo-1,3-diazaspiro[4.5]dec-3-yl]acetamide] | 1.5
CC(C)c1cccc(C(C)C)c1NC(=O)CN1C(=O)N(c2ccc(S(C)(=O)=O)cc2)C2(CCCCC2)C1=O [Compound 5, N-(2,6-Diisopropylphenyl)-2-[1-(4-methanesulfonylphenyl)-2,4-dioxo-1,3-diaza-spiro[4.5]dec-3-yl]acetamide] | 31

Continued by falling IC50, values first:

IC50 [nM] | SMILES
77 | CC(C)c1cccc(C(C)C)c1NC(=O)CN1C(=O)N(c2ccc(C#N)cc2)C2(CCCCC2)C1=O [Compound 2, 2-[1-(4-Cyanophenyl)-2,4-dioxo-1,3-diaza-spiro[4.5]dec-3-yl]-N-(2,6-diisopropylphenyl)acetamide]
2.4 | CCOC(=O)c1ccc(N2C(=O)N(CC(=O)Nc3c(C(C)C)cccc3C(C)C)C(=O)C23CCCCC3)cc1 [Compound 1, 4-{3-[(2,6-Diisopropylphenylcarbamoyl)-methyl]-2,4-dioxo-1,3-diazaspiro[4.5]dec-1-yl}benzoic acid ethyl ester]
